The target in this experiment is JNK3 (Homo sapiens, UniProt P53779). The experiment can be described thus: JNK3 SPA assay (phosphorylation of GST-c-Jun). The note with it: Scintillation proximity assay, GST-c-Jun substrate, 3.33 μM ATP, 30 minutes at room temperature. It counts as biochemical. As for the experimental part:
JNK1, JNK2, JNK3—SPA Assay • 1. Compound is dissolved in DMSO to a convenient concentration and this is diluted in 10% DMSO to a five times concentrate of the desired starting concentration (frequently 1:100). • 2. 10 μl of 500 mM EDTA is added to alternative wells of the Opti-plate row, which will receive kinase reaction plus DMSO. This creates the negative control. • 3. For the JNK2 and JNK3 assay, compounds are prepared in six 2-fold dilutions with water and each concentration is tested in duplicate. For the JNK1 assay compounds are prepared in four 5-fold dilutions with water which are tested in triplicate. Controls are treated identically. • 4. 20 μl per well of each compound concentration is transferred to an Opti-plate, in duplicate. • 5. 30 μl (JNK2/3 SPA) or 50 μl (JNK1 SPA) of substrate solution (25 mM HEPES pH 7.5, 10 mM magnesium acetate with 3.33 μM ATP (JNK2/3) or 2 μM ATP (JNK1), approximately 7.5 kBq [γ-^33P] ATP, GST-c-Jun, in water) is added to each well. • 6. 50 μl (JNK2/3 SPA) or 30 μl (JNK1 SPA) of kinase solution (JNK in 25 mM HEPES pH 7.5, 10 mM Mg Acetate) is added to each well.
• 7. The plate is incubated for 30 minutes at room temperature. • 8. 100 μl of bead/stop solution is added to each well (5 mg/ml glutathione-PVT-SPA beads, 40 mM ATP in PBS). • 9. Plates are sealed and incubated for 30 minutes at room temperature, centrifuged for 10 minutes at 2500 g and counted. • 10. The IC50 values are calculated as the concentration of the compound being tested at which the phosphorylation of c-Jun is decreased to 50% of the control value.
Sequence of JNK3 (P53779 whole entry): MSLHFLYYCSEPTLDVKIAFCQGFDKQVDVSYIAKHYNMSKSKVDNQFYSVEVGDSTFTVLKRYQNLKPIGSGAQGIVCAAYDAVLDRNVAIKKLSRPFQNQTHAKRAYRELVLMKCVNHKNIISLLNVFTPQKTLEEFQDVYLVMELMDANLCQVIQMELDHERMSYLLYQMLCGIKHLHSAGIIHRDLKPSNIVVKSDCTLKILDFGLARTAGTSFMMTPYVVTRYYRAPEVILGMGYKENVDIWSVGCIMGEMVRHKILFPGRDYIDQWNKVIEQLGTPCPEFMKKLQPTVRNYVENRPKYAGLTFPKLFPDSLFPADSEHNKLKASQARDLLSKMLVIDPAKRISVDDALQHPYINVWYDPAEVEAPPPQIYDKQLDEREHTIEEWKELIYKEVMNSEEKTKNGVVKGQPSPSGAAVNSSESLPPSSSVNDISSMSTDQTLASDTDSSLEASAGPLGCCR
As to `O=C(c1cnc2[nH]cc(-c3ccoc3)c2c1)N1CCCC1`, the IC50 (usually the concentration needed to halve the response being measured) is below 500 nM.
The same measure for `O=C(NCCc1c[nH]c2ccccc12)c1cnc2[nH]cc(-c3ccoc3)c2c1`: below 500 nM; for `CN(C)c1ccc(C(=O)c2cnc3[nH]cc(-c4cnn(C)c4)c3c2)cc1`: below 500 nM; for `O=C(c1cnc2[nH]cc(-c3ccoc3)c2c1)N1CCc2ccccc2C1`: below 500 nM.
Then `O=C(Nc1ccc2[nH]ccc2c1)c1cnc2[nH]cc(-c3ccoc3)c2c1`, with below 1000 nM.
